SMILES strings stand for the structures.

Data on 24 molecules can be found in US20160242416A1, “FUNGICIDAL ISOXAZOLINE CARBINOLS” (E I DU PONT DE NEMOURS AND COMPANY, priority 2015, published 2016).

Test [1] deals with Botrytis cinerea. Nature of the test: Test B: gray mold, preventive spray on tomato seedlings. Particulars: 100 = 100% disease control; for Test B rating (% disease control): 10 ppm, gray mold on tomato, 0 = no control; for Test B disease control rating: 10 ppm test solution, 0 = no control relative to controls.
Test [2] has as its system Puccinia recondita f sp. tritici. As to the kind of experiment: Test F: wheat leaf rust, preventive spray on wheat seedlings. Particulars: 100 = 100% disease control; for Test F rating (% disease control): 10 ppm, wheat leaf rust, 0 = no control; for Test F disease control rating: 10 ppm test solution, 0 = no control relative to controls.
Test [3] relates to Stagonospora nodorum. As to the kind of experiment: Test D: wheat glume blotch, preventive spray on wheat seedlings. Particulars: 100 = 100% disease control; for Test D rating (% disease control): 10 ppm, wheat glume blotch, 0 = no control; for Test D disease control rating: 10 ppm test solution, 0 = no control relative to controls.
Test [4] concerns Zymoseptoria tritici. As to the kind of experiment: Test E: wheat leaf blotch, preventive spray on wheat seedlings. As to conditions: 100 = 100% disease control; for Test E rating (% disease control): 10 ppm, wheat leaf blotch, 0 = no control; for Test E disease control rating: 10 ppm test solution, 0 = no control relative to controls.
Test [5] deals with Erysiphe graminis f sp. tritici. As to the kind of experiment: Test G: wheat powdery mildew, preventive spray on wheat seedlings. As to conditions: 100 = 100% disease control; for Test G rating (% disease control): 10 ppm, wheat powdery mildew, 0 = no control; for Test G disease control rating: 10 ppm test solution, 0 = no control relative to controls.

As for `CS(=O)(=O)c1ccc(C2CC(C(O)(Cn3cncn3)c3ccc(Cl)cc3)=NO2)cc1` (single isomer, unassigned) [Compound 114], the “Test B rating (% disease control)” value in test [1] is on record as 0%. Also, the “Test F rating (% disease control)” value in test [2] is 36%. Also, the “Test D rating (% disease control)” value in test [3] worked out at 0%. In addition, the “Test E rating (% disease control)” value in test [4] stood at 39%. Also, the “Test G rating (% disease control)” value in test [5] stood at 56%.
With `CC(C)(C)C(O)(Cn1cncn1)C1=NOC(COc2ccc(Cl)cn2)C1` (single isomer, unassigned) [Compound 95], the “Test B rating (% disease control)” value in test [1] turned out to be 100%. Further, the “Test F rating (% disease control)” value in test [2] is given as 100%. Also, in test [3], the “Test D rating (% disease control)” value came to 100%. In test [4], the “Test E rating (% disease control)” value stood at 0%. The “Test G rating (% disease control)” value in test [5] is reported as 100%.
Consider `CC(C)(C)C(O)(Cn1cncn1)C1=NOC(COc2ccc(Cl)nc2)C1` (single isomer, unassigned) [Compound 98], for which the “Test B rating (% disease control)” value in test [1] is recorded as 0%. Besides, the “Test F rating (% disease control)” value in test [2] turned out to be 88%. Moreover, the “Test D rating (% disease control)” value in test [3] turned out to be 0%. Besides, in test [4], the “Test E rating (% disease control)” value stood at 0%. For the same molecule, in test [5], the “Test G rating (% disease control)” value is 55%.
Take `CC(C)(C)CC(O)(Cn1cncn1)C1=NOC(COc2ccc(Cl)cc2)C1` (single isomer, unassigned) [Compound 173]: in test [1], the “Test B rating (% disease control)” value is on record as 0%. In test [2], the “Test F rating (% disease control)” value was 100%. For the same molecule, in test [3], the “Test D rating (% disease control)” value worked out at 63%. Besides, the “Test E rating (% disease control)” value in test [4] was 6%. For the same molecule, the “Test G rating (% disease control)” value in test [5] is on record as 97%.
On the same counts, the results for `CC(C)(C)C(O)(Cn1cncn1)C1=NOC(COc2ncc(Cl)cn2)C1` (single isomer, unassigned) [Compound 99] are 0%, 95%, 63%, 0% and 96%.
Regarding `CCC(C)(C)C(O)(Cn1cncn1)C1=NOC(COc2ccc(Br)cc2)C1` (single isomer, unassigned) [Compound 12], the “Test B rating (% disease control)” value in test [1] is on record as 0%. Further, the “Test F rating (% disease control)” value in test [2] is reported as 99%. Also, the “Test D rating (% disease control)” value in test [3] was found to be 68%. Besides, in test [4], the “Test E rating (% disease control)” value stood at 57%. Also, the “Test G rating (% disease control)” value in test [5] stood at 96%.
Take `CC(C)(C)C(O)(Cn1cncn1)C1=NOC(CCc2ccc(Cl)cc2)C1` (single isomer, unassigned) [Compound 16]: in test [1], the “Test B rating (% disease control)” value came to 32%. The “Test F rating (% disease control)” value in test [2] was 100%. The “Test D rating (% disease control)” value in test [3] came to 100%. Further, the “Test E rating (% disease control)” value in test [4] stood at 8%. For the same molecule, the “Test G rating (% disease control)” value in test [5] was found to be 99%.
On to `CC(C)(C)C(O)(Cn1cncn1)C1=NOC(Cc2ccc(Cl)c(Cl)c2)C1` (single isomer, unassigned) [Compound 22], for which the “Test B rating (% disease control)” value in test [1] was found to be 0%. Further, in test [2], the “Test F rating (% disease control)” value is 100%. The “Test D rating (% disease control)” value in test [3] was 96%. Moreover, in test [4], the “Test E rating (% disease control)” value worked out at 29%. In addition, the “Test G rating (% disease control)” value in test [5] is 99%.
In the case of `OC(Cn1cncn1)(C1=NOC(COc2ccc(F)cc2)C1)c1ccc(Cl)cc1` (single isomer, unassigned) [Compound 163], in test [1], the “Test B rating (% disease control)” value is on record as 0%. In addition, the “Test F rating (% disease control)” value in test [2] came out at 99%. Besides, the “Test D rating (% disease control)” value in test [3] was 0%. For the same molecule, the “Test E rating (% disease control)” value in test [4] was found to be 0%. For the same molecule, the “Test G rating (% disease control)” value in test [5] was determined as 86%.
Turning to `CC(C)(C)C(O)(Cn1cncn1)C1=NOC(COc2cccc(Cl)c2)C1` (single isomer, unassigned) [Compound 230], the “Test B disease control rating” value in test [1] is recorded as 99%. In test [2], the “Test F disease control rating” value is 100%. In addition, the “Test D disease control rating” value in test [3] turned out to be 100%. For the same molecule, the “Test E disease control rating” value in test [4] is 8%. Also, the “Test G disease control rating” value in test [5] amounted to 99%.
Consider `OC(Cn1cncn1)(C1=NOC(c2ccc(Cl)cc2)C1)c1cccc(Oc2ccccc2)c1` (single isomer, unassigned) [Compound 109], for which, in test [1], the “Test B rating (% disease control)” value is 0%. Besides, in test [2], the “Test F rating (% disease control)” value worked out at 100%. For the same molecule, the “Test D rating (% disease control)” value in test [3] came out at 59%. Moreover, the “Test E rating (% disease control)” value in test [4] worked out at 66%. Also, the “Test G rating (% disease control)” value in test [5] amounted to 93%.
On the same counts, the results for `OC(Cn1cncn1)(C1=NOC(Cc2ccc(Cl)cc2)C1)c1ccc(Cl)cc1` (single isomer, unassigned) [Compound 199] are 0%, 100%, 86%, 0% and 100%.
For `CC(C)(C)C(O)(Cn1cncn1)C1=NOC(COC2CCCCC2)C1` (single isomer, unassigned) [Compound 92] the same measures were 0%, 0%, 10%, 3% and 13%.
For `OC(Cn1cncn1)(C1=NOC(Cc2ccc(Br)cc2)C1)c1ccc(Cl)cc1` (single isomer, unassigned) [Compound 55] the same measures were 0%, 99%, 73%, 2% and 99%.
As for `CC(C)(C)C(O)(Cn1cncn1)C1=NOC(Cc2ccc(Cl)c(Cl)c2)C1` (single isomer, unassigned) [Compound 23], the “Test B rating (% disease control)” value in test [1] is recorded as 0%. Moreover, in test [2], the “Test F rating (% disease control)” value was 100%. Also, in test [3], the “Test D rating (% disease control)” value is 97%. Besides, the “Test E rating (% disease control)” value in test [4] was 89%. The “Test G rating (% disease control)” value in test [5] was 100%.
Turning to `CC(C)(C)C(O)(Cn1cncn1)C1=NOC(CSc2ccc(Cl)cc2)C1` (single isomer, unassigned) [Compound 27], the “Test B rating (% disease control)” value in test [1] came to 51%. Further, in test [2], the “Test F rating (% disease control)” value is given as 68%. In test [3], the “Test D rating (% disease control)” value was found to be 59%. Also, the “Test E rating (% disease control)” value in test [4] is reported as 0%. For the same molecule, in test [5], the “Test G rating (% disease control)” value is on record as 89%.
Turning to `OC(Cn1cncn1)(C1=NOC(c2ccc(Cl)cc2)C1)c1ccc(C(F)(F)F)cc1` (single isomer, unassigned) [Compound 105], the “Test B rating (% disease control)” value in test [1] was 0%. Also, the “Test F rating (% disease control)” value in test [2] was found to be 100%. Also, in test [3], the “Test D rating (% disease control)” value is reported as 96%. Moreover, the “Test E rating (% disease control)” value in test [4] is 8%. Further, in test [5], the “Test G rating (% disease control)” value was 99%.
On the same counts, the results for `CS(=O)(=O)c1ccc(C2CC(C(O)(Cn3cncn3)c3ccc(Cl)cc3)=NO2)cc1` (single isomer, unassigned) [Compound 113] are 0%, 100%, 0%, 9% and 98%.
On the same counts, the results for `CSc1ccc(C2CC(C(O)(Cn3cncn3)c3ccc(Cl)cc3)=NO2)cc1` (single isomer, unassigned) [Compound 107] are 0%, 100%, 32%, 58% and 99%.
For `CC(C)(C)C(O)(Cn1cncn1)C1=NOC(COc2ccc(F)cc2)C1` (single isomer, unassigned) [Compound 79] the same measures were 97%, 100%, 100%, 21% and 99%.
With `CC(C)(C)C(O)(Cn1cncn1)C1=NOC(COc2cccc(Br)c2)C1` (single isomer, unassigned) [Compound 233], in test [1], the “Test B disease control rating” value is recorded as 40%. The “Test F disease control rating” value in test [2] worked out at 100%. Further, the “Test D disease control rating” value in test [3] turned out to be 100%. Besides, in test [4], the “Test E disease control rating” value was determined as 0%. In test [5], the “Test G disease control rating” value turned out to be 99%.
Turning to `CC(C)(C)C(O)(Cn1cncn1)C1=NOC(COc2ccc(-n3cccn3)cc2)C1` (single isomer, unassigned) [Compound 29], the “Test B rating (% disease control)” value in test [1] came out at 0%. For the same molecule, the “Test F rating (% disease control)” value in test [2] amounted to 0%. The “Test D rating (% disease control)” value in test [3] is given as 49%. The “Test E rating (% disease control)” value in test [4] amounted to 0%. For the same molecule, the “Test G rating (% disease control)” value in test [5] was 99%.
Regarding `CC(C)(C)C(O)(Cn1cncn1)C1=NOC(Cc2ccccc2)C1` (single isomer, unassigned) [Compound 86], the “Test B rating (% disease control)” value in test [1] came to 72%. Moreover, the “Test F rating (% disease control)” value in test [2] came to 74%. For the same molecule, the “Test D rating (% disease control)” value in test [3] was 99%. For the same molecule, in test [4], the “Test E rating (% disease control)” value is 1%. The “Test G rating (% disease control)” value in test [5] amounted to 98%.
For the molecule `OC(Cn1cncn1)(C1=NOC(Cc2ccc(C(F)(F)F)cc2)C1)c1ccc(Cl)cc1` (single isomer, unassigned) [Compound 203], the “Test B rating (% disease control)” value in test [1] was found to be 0%. The “Test F rating (% disease control)” value in test [2] is 100%. Moreover, the “Test D rating (% disease control)” value in test [3] was found to be 55%. Besides, the “Test E rating (% disease control)” value in test [4] worked out at 16%. The “Test G rating (% disease control)” value in test [5] came out at 99%.
